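In this assay, cells in 96-well plates receive the compound at five concentrations for 48 hours. Endpoints are linearly interpolated between the surrounding concentrations. GI50: concentration for 50% inhibition of growth.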 The source made the active and inactive calls. Cut-off read from the data, not from the text of the source: active = GI50 up to about 1.1 µM and inactive = higher. Bounds are passed on as bounds.

Some test systems named below: 786-0; A549; ACHN; CAKI-1; CCRF-CEM; HT-29; IGROV-1; KM12; M14; Malme-3M; NCI-H460; NCI/ADR-RES; OVCAR-4; SF-268; SF-295; SK-OV-3; SW-620; UACC-62; NCI-H522; T47D.
What all share (experiment): NCI tumour cell line growth inhibition, 48 h

As to `Cc1nc2c(Br)cc(Br)cc2c(=O)n1-c1ccccc1N`, the GI50 in the assay on 786-0 is 43.8 µM (inactive); in the assay on A549, 33.5 µM (inactive); in the assay on ACHN, 39.7 µM (inactive); with CAKI-1, 28.4 µM (inactive); in the assay on CCRF-CEM, 30.1 µM (inactive); in the assay with HT-29, 23.9 µM (inactive). Further, the GI50 was 38.3 µM (inactive) with IGROV-1; 51.5 µM (inactive) in the assay with KM12; 35.4 µM (inactive) in the assay with M14; 28.4 µM (inactive) in the assay on Malme-3M; 31.8 µM (inactive) in the assay with NCI-H460; 45.9 µM (inactive) in the assay on NCI/ADR-RES. For the same compound, the GI50 in the assay on OVCAR-4 is > 100 µM (inactive); in the assay with SF-268, 50.1 µM (inactive); with SF-295 it was 53 µM (inactive); in the assay on SK-OV-3 it was 33 µM (inactive); in the assay on SW-620, 44.6 µM (inactive); with UACC-62, 30.1 µM (inactive).

`O=c1[nH]c2[nH]c(-c3ccc(Br)cc3)cc2c2ccccc12`: the GI50 is 35.6 µM (inactive) in the assay with 786-0; 66.8 µM (inactive) with ACHN; 61.1 µM (inactive) in the assay on CAKI-1; 35.6 µM (inactive) in the assay with HT-29; > 100 µM (inactive) with IGROV-1; > 100 µM (inactive) in the assay with KM12. Further, the GI50 in the assay on Malme-3M was > 100 µM (inactive); with NCI-H460 it was > 100 µM (inactive); in the assay with NCI-H522, > 100 µM (inactive); with NCI/ADR-RES, 50.1 µM (inactive); in the assay on OVCAR-4, 24.7 µM (inactive); in the assay on SF-268 it was 86.9 µM (inactive). Besides, the GI50 in the assay with SF-295 was 70 µM (inactive); with SW-620, > 100 µM (inactive); with UACC-62 it was > 100 µM (inactive).

For the compound `CC1(C)CC(=O)C(=CNc2nc(-c3ccc(Br)cc3)cs2)C(=O)C1`, the GI50 is 25.5 µM (inactive) with 786-0; 51.4 µM (inactive) with A549; 37 µM (inactive) in the assay on ACHN; 24.9 µM (inactive) in the assay with CAKI-1; 29.9 µM (inactive) in the assay with HT-29; 29.6 µM (inactive) in the assay on IGROV-1. The GI50 in the assay with KM12 was 34 µM (inactive); in the assay with M14, 20.5 µM (inactive); in the assay with NCI-H460 it was 31.1 µM (inactive); in the assay on NCI/ADR-RES, 37.8 µM (inactive); with OVCAR-4, 37.5 µM (inactive); with SF-295 it was 39 µM (inactive). In addition, the GI50 in the assay with SK-OV-3 is 83 µM (inactive); in the assay on SW-620 it was 42.9 µM (inactive); in the assay on T47D it was 32.9 µM (inactive).

`CC1=C2CN(C(=O)OCC(C)C)CCC2C2=C(C(=O)c3ccccc3C2=O)C1C` (stereo unspecified): the GI50 in the assay on 786-0, in the assay with A549, with CAKI-1, with CCRF-CEM, with HT-29 and with IGROV-1 was > 10 µM (inactive) in each case. In addition, the GI50 in the assay with KM12, with M14, with Malme-3M, in the assay with OVCAR-4, in the assay on SF-268 and in the assay with SF-295 was > 10 µM (inactive) each time. In addition, the GI50 in the assay with SK-OV-3, in the assay on SW-620, in the assay with T47D and with UACC-62 was > 10 µM (inactive) in each case.

As for `COCC1OC([P+](c2ccccc2)(c2ccccc2)c2ccccc2)CC(OC)C1OC` (stereo unspecified), the GI50 in the assay with 786-0 was 53.2 µM (inactive); in the assay on ACHN, 74.6 µM (inactive); in the assay on CAKI-1, > 100 µM (inactive); in the assay with KM12 it was 34.5 µM (inactive); with M14, 40.8 µM (inactive); in the assay on Malme-3M, 33.9 µM (inactive). In addition, the GI50 is > 100 µM (inactive) in the assay with NCI/ADR-RES; 44.1 µM (inactive) with OVCAR-4; 34.2 µM (inactive) in the assay on SF-295; 32.6 µM (inactive) in the assay on SK-OV-3; 35.5 µM (inactive) with SW-620; 20.6 µM (inactive) with T47D. Moreover, the GI50 in the assay with UACC-62 is 49.5 µM (inactive).

On to `O=C1/C(=C/c2ccc(Cl)cc2)CCC1CNc1ccc(Cl)cc1` (stereo unspecified), for which the GI50 was 2.26 µM (inactive) in the assay on 786-0; 7.8 µM (inactive) in the assay on A549; 1.57 µM (inactive) with ACHN; 7.55 µM (inactive) with CAKI-1; 0.828 µM (active) in the assay with CCRF-CEM; 3.67 µM (inactive) in the assay with HT-29. The GI50 in the assay on IGROV-1 is 6.12 µM (inactive); with KM12, 1.29 µM (inactive); in the assay on M14 it was 2.37 µM (inactive); in the assay with Malme-3M, 18 µM (inactive); in the assay on NCI-H460, 7.96 µM (inactive); in the assay on NCI-H522, 1.8 µM (inactive). The GI50 with NCI/ADR-RES is 26.2 µM (inactive); with OVCAR-4, 18.9 µM (inactive); in the assay with SF-268 it was 7.4 µM (inactive); with SF-295 it was 6.79 µM (inactive); in the assay with SW-620, 2.03 µM (inactive); in the assay with UACC-62, 0.41 µM (active).

As for `CC1CC(N)=Nc2ccccc2N1Cc1ccccc1` (stereo unspecified), the GI50 in the assay with 786-0 was 29.4 µM (inactive); in the assay with A549, 17.4 µM (inactive); in the assay with ACHN it was 15.2 µM (inactive); in the assay on CAKI-1 it was 12.2 µM (inactive); in the assay on CCRF-CEM, 12.4 µM (inactive); with HT-29 it was 14.4 µM (inactive). In addition, the GI50 with IGROV-1 is 7.6 µM (inactive); with KM12, 15 µM (inactive); in the assay with M14 it was 15.6 µM (inactive); with Malme-3M it was 2.22 µM (inactive); in the assay with NCI-H460, 13.9 µM (inactive); in the assay with NCI-H522, 12.7 µM (inactive). For the same compound, the GI50 is 15.1 µM (inactive) in the assay on NCI/ADR-RES; 16.5 µM (inactive) in the assay on OVCAR-4; 13.6 µM (inactive) with SF-268; 14.5 µM (inactive) with SF-295; 13.2 µM (inactive) with SK-OV-3; 12.6 µM (inactive) in the assay with SW-620. Besides, the GI50 in the assay on UACC-62 is 14.2 µM (inactive).

On to `CC(C)[C@H]1C(=O)O[B@-](F)(c2ccccc2)/[N+]1=C\N(C)C`, for which the GI50 with 786-0, in the assay with A549, with ACHN, in the assay with CCRF-CEM, in the assay on HT-29 and in the assay with IGROV-1 was > 100 µM (inactive) throughout. Besides, the GI50 was > 100 µM (inactive) with M14; > 100 µM (inactive) with Malme-3M; > 100 µM (inactive) in the assay on NCI-H460; > 100 µM (inactive) with NCI/ADR-RES; 30.1 µM (inactive) with OVCAR-4; > 100 µM (inactive) in the assay with SF-268. Also, the GI50 in the assay with SF-295, with SK-OV-3, in the assay with SW-620, in the assay on T47D and in the assay on UACC-62 was > 100 µM (inactive) each time.

As to `CCc1n[nH]c(=O)n1/N=C/c1c(O)ccc2ccccc12`, the GI50 in the assay on 786-0, with A549, in the assay on ACHN, in the assay on CCRF-CEM, with IGROV-1 and in the assay on KM12 was > 100 µM (inactive) each time. Also, the GI50 with M14, with NCI-H522, in the assay on NCI/ADR-RES, in the assay on OVCAR-4, with SF-268 and with SF-295 was > 100 µM (inactive) in each case. In addition, the GI50 in the assay on SK-OV-3, with SW-620 and in the assay with UACC-62 was > 100 µM (inactive) in each case.

Consider `N#CC(C/C=C/c1ccccc1)NNC(=O)c1c(Cl)c(Cl)c(Cl)c(Cl)c1-c1nc2cc(C(=O)c3ccccc3)ccc2[nH]1` (stereo unspecified), for which the GI50 is 16.4 µM (inactive) with 786-0; 18.1 µM (inactive) in the assay on A549; 25.9 µM (inactive) in the assay with ACHN; 31.4 µM (inactive) in the assay with CAKI-1; 5.79 µM (inactive) in the assay on CCRF-CEM; 16.1 µM (inactive) with HT-29. The GI50 was 18.2 µM (inactive) in the assay with IGROV-1; 23.4 µM (inactive) with KM12; 14.9 µM (inactive) with M14; 12.9 µM (inactive) with NCI/ADR-RES; 14 µM (inactive) with OVCAR-4; 3.92 µM (inactive) in the assay on SF-295. The results for the GI50 with SK-OV-3, with SW-620 and in the assay with T47D were 16.9 µM (inactive), 22.8 µM (inactive) and 12 µM (inactive), respectively.

For `O=C(Cc1ccc(F)cc1)NC1=C(Cl)C(=O)c2ccccc2C1=O`, the GI50 in the assay on 786-0 is 6.58 µM (inactive); in the assay with A549 it was 3.62 µM (inactive); with ACHN, 1.47 µM (inactive); in the assay with CAKI-1 it was 4.95 µM (inactive); in the assay with CCRF-CEM, 1.71 µM (inactive); in the assay on HT-29, 17.3 µM (inactive). Also, the GI50 was 2.61 µM (inactive) in the assay on IGROV-1; 3.52 µM (inactive) with KM12; 3.16 µM (inactive) in the assay on M14; 2.77 µM (inactive) in the assay with Malme-3M; 3.47 µM (inactive) in the assay on NCI-H460; 0.297 µM (active) in the assay on NCI-H522. Further, the GI50 was 2.06 µM (inactive) in the assay on OVCAR-4; 4.05 µM (inactive) in the assay with SF-268; 3.83 µM (inactive) with SF-295; 4.94 µM (inactive) in the assay with SK-OV-3; 2.24 µM (inactive) in the assay with SW-620; 2.53 µM (inactive) in the assay on UACC-62.

As to `COc1c(-c2ccccc2)oc2c(CP(=O)(OC)OC)cccc2c1=O`, the GI50 in the assay on 786-0 is > 100 µM (inactive); in the assay with A549, > 100 µM (inactive); in the assay on CAKI-1, 2.12 µM (inactive); in the assay with CCRF-CEM, 94.4 µM (inactive); in the assay on IGROV-1 it was > 100 µM (inactive); in the assay with M14, > 100 µM (inactive). Besides, the GI50 in the assay with Malme-3M, with NCI-H522, in the assay on SF-295, in the assay with SK-OV-3, in the assay with T47D and in the assay on UACC-62 was > 100 µM (inactive) in each case.

These data come from ChEMBL document CHEMBL1201862, “PubChem BioAssay data set” (2004).
